From US20050014765A1, “Aryl-heteroaromatic products, compositions comprising them and use” (Aventis Pharma S.A., priority 2003, published 2005)
One block for each molecule: values may come before it.

How the values were obtained:
[1] = target: T1, Tubulin purified from pig brains (Sus scrofa, UniProt P02550+P02554); test: Assessment of the inhibition of tubulin polymerization (turbidimetry at 350 nm); type: biochemical; conditions: concentration which inhibits the rate of polymerization by 50%; tubulin 1 mg/ml, 37° C.; read-out: Inhibition of tubulin polymerization IC 50
T1 construct: Tubulin is purified from pig brains according to published methods; from tissue; host or cells: pig brain
In short: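 Pig brain tubulin, >95% pure after polymerization/depolymerization cycles and phosphocellulose removal of MAPs, used at 10 μm in MES pH 6.8/30% glycerol buffer with 1 mM GTP and 6 mM MgCl2. Compounds at 0.5–10 μm were added before a 6→37 °C shift triggered assembly, followed by turbidity at 350 nm. IC50 is the concentration halving polymerization rate.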

HCT116 cells = test: Inhibition of proliferation of the HCT116 human colon tumor line ([14C]-thymidine incorporation); type: cell-based; conditions: HCT-116, 48 hours incubation at 37° C., read-out: Inhibition of HCT116 proliferation IC 50
Protocol: Test for Determining the Inhibition of Proliferation of the HCT116 Human Colon Tumor Line
The proliferation of HCT116 cells is evaluated by mesuring the incorporation of [^14C]-thymidine in the following way. The HCT166 cells (from the ATCC) are cultured in a DMEM medium (Gibco) which contains 10% of fetal calf serum and antibiotics (1% penicillin, 1% streptomycin). To perform the proliferation test, the cells are seeded into 96-well cytostar microplates (Amersham) at the rate of 5000 cells per well. The [^14C]-thymidine (0.1 μCi/well) and the products to be evaluated are subsequently added. Variable concentrations of products up to 10 μM are used; the DMSO (solvent used to dissolve the products) should not exceed 0.5% in the medium. 48 hours after incubation at 37° C., the radioactivity incorporated into the cells is measured by counting the plate in a Tri-Lux counter (Wallac). The IC50 is defined as the concentration of product which reduces the radioactivity by 50% compared with an untreated control. A product with an IC50 of less than 10 μm is regarded as cytotoxic.

T1 sequence (P02550 whole entry): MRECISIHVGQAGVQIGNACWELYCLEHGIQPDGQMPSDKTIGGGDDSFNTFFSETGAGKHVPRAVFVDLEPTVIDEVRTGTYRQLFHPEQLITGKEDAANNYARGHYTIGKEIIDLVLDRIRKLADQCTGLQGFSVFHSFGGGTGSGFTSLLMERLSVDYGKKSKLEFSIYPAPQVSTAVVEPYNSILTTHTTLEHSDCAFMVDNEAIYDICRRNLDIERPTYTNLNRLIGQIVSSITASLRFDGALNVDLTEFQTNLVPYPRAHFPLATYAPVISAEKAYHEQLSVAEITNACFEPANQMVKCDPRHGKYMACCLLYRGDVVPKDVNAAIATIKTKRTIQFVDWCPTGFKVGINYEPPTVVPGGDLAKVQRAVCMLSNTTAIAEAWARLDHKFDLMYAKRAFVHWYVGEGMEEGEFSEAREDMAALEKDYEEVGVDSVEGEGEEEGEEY
T1 sequence (P02554 whole entry): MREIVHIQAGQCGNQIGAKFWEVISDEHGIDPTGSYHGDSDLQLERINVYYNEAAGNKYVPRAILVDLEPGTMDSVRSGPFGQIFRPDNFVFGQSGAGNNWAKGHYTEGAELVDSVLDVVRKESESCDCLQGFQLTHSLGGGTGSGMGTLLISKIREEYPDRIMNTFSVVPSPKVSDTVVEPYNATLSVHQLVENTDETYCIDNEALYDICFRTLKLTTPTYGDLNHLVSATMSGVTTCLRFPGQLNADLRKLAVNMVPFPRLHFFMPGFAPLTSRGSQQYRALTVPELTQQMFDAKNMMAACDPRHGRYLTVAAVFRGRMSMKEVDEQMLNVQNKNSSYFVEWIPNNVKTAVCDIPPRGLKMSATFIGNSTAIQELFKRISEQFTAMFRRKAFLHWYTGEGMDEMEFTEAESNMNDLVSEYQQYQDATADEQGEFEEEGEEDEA

SMILES: COc1cc(OC)cc(N2CCN(C(=O)c3[nH]c(O)nc3-c3ccccc3)CC2)c1 [Example 28, [4-(3,5-Dimethoxyphenyl)piperazin-1-yl](2-hydroxy-5-phenyl-1H-imidazol-4-yl)methanone]
- IC50 [1]: 1100 nM
- IC50 (HCT116 cells): 1.5 nM
- melting point: 130 °C

SMILES: N#Cc1cccc(N2CCN(C(=O)c3ccn(CCO)c3-c3ccccc3)CC2)c1 [Example 81, 3-[4-(1-Hydroxyethyl-2-phenyl-1H-pyrrol-3-ylcarbonyl)piperazin-1-yl]-benzonitrile]
- IC50 [1]: 2400 nM
- IC50 (HCT116 cells): 307 nM
- melting point: 158 °C

SMILES: COc1cc(OC)cc(N2CCN(C(=O)c3ccn(C)c3-c3ccccc3)CC2)c1 [Example 27, [4-(3,5-Dimethoxyphenyl)piperazin-1-yl](1-methyl-2-phenyl-1H-pyrrol-3-yl)-methanone]
- IC50 [1]: 1900 nM
- IC50 (HCT116 cells): 15.1 nM
- melting point: 130 °C

SMILES: COc1cc(OC)cc(N2CCN(C(=O)c3ccn(CCO)c3-c3ccccc3)CC2)c1 [Example 53, [4-(3,5-Dimethoxyphenyl)piperazin-1-yl][1-(2-hydroxyethyl)-2-phenyl-1H-pyrrol-3-yl]methanone]
- IC50 [1]: 810 nM
- IC50 (HCT116 cells): 46 nM
- melting point: 157 °C

SMILES: COc1cc(OC)cc(N2CCN(C(=O)c3ccn(C(C)=O)c3-c3ccccc3)CC2)c1 [Example 63, [4-(3,5-Dimethoxyphenyl)piperazin-1-yl](1-acetyl-2-phenyl-1H-pyrrol-3-yl)methanone]
- IC50 [1]: 4000 nM
- melting point: 150 °C

SMILES: O=C(c1nc(S)[nH]c1-c1ccccc1)N1CCN(c2cccc(Cl)c2)CC1 [Example 19, [4-(3-Chlorophenyl)piperazin-1-yl](2-mercapto-5-phenyl-1H-imidazol-4-yl)-methanone]
- IC50 [1]: 750 nM
- IC50 (HCT116 cells): 28.7 nM
- melting point: > 260 °C

SMILES: O=C(c1[nH]c(O)nc1-c1ccccc1)N1CCN(c2cccc(CO)c2)CC1 [Example 57, [4-(3-Hydroxymethylphenyl)piperazin-1-yl](2-hydroxy-4-phenyl-1H-imidazol-5-yl)methanone]
- IC50 [1]: 795 nM
- IC50 (HCT116 cells): 17 nM
- melting point: 173 °C

SMILES: COc1cc(OC)cc(N2CCN(C(=O)c3[nH]cnc3-c3ccccc3)CC2)c1 [Example 9, [4-(3,5-Dimethoxyphenyl)piperazin-1-yl](4-phenyl-1H-imidazol-5-yl)-methanone]
- IC50 [1]: 600 nM
- IC50 (HCT116 cells): 1.3 nM
- melting point: 196 °C

SMILES: NC(=O)c1cccc(N2CCN(C(=O)c3nc(O)[nH]c3-c3ccccc3)CC2)c1 [Example 51, 3-[4-(2-Hydroxy-4-phenyl-1H-imidazol-5-yl-carbonyl)piperazin-1-yl]benzamide]
- IC50 [1]: 500 nM
- IC50 (HCT116 cells): 1360 nM
- melting point: 202 °C

Results, then the molecule that gave them:

- IC50 [1]: 3750 nM
- melting point: 198 °C
SMILES: CS(=O)(=O)c1nc(-c2ccccc2)c(C(=O)N2CCN(c3cccc(C#N)c3)CC2)[nH]1 [Example 70, 3-[4-(2-Methylsulfonyl-4-phenyl-1H-imidazol-4-ylcarbonyl)piperazin-1-yl]benzonitrile]

- IC50 [1]: 3050 nM
- IC50 (HCT116 cells): 52 nM
- melting point: 80 °C
SMILES: N#Cc1cccc(N2CCN(C(=O)c3cc[nH]c3-c3ccccc3)CC2)c1 [Example 74, 3-[4-(2-Phenyl-1H-pyrrol-3-ylcarbonyl)piperazin-1-yl]benzonitrile]

- IC50 [1]: 715 nM
- melting point: 176 °C
SMILES: Nc1nc(-c2ccccc2)c(C(=O)N2CCN(c3cccc(CO)c3)CC2)s1 [Example 88, [4-(3-Hydroxymethylphenyl)piperazin-1-yl](2-amino-4-phenylthiazol-5-yl)-methanone]

- IC50 [1]: 400 nM
- IC50 (HCT116 cells): 100 nM
- melting point: 247 °C
SMILES: N#Cc1cccc(N2CCN(C(=O)c3[nH]c(S)nc3-c3ccccc3)CC2)c1 [Example 52, 3-[4-(2-Mercapto-4-phenyl-1H-imidazol-5-yl-carbonyl)piperazin-1-yl]-benzonitrile]

- IC50 [1]: 294 nM
- melting point: 246 °C
SMILES: N#Cc1cccc(N2CCN(C(=O)c3sc(N)nc3-c3ccccc3)CC2)c1 [Example 82, 3-[4-(2-Amino-4-phenylthiazol-5-ylcarbonyl)piperazin-1-yl]benzonitrile]

- IC50 [1]: 1010 nM
- IC50 (HCT116 cells): 11.5 nM
- melting point: 198 °C
SMILES: N#Cc1cccc(N2CCN(C(=O)c3[nH]c(O)nc3-c3ccccc3)CC2)c1 [Example 75, 3-[4-(2-Hydroxy-4-phenyl-1H-imidazol-5-ylcarbonyl)piperazin-1-yl]-benzonitrile]
